Results reported in ChEMBL document CHEMBL5550214, “Expanding Structure-Activity Relationships of Human Urotensin II Peptide Analogues: A Proposed Key Role of the N-Terminal Region for Novel Urotensin II Receptor Modulators” (J Med Chem, 2024).
Activity calls are given as the source filed them. The rule behind the calls is not given here.

Key:
Aortic ring [1] = assay: Induction of contraction in Albino Wistar rat aortic ring assessed as Emax of hU-II at 1 uM incubated for 30 mins in presence of hU-II (reference value: 238.4 +/- 9.53 dyne/mg); format: functional, Aorta; details: 0.5 h
Aortic ring [2] = assay: Induction of contraction in Albino Wistar rat aortic ring assessed as Emax of U-II(4-11) at 1 uM incubated for 30 mins in presence of U-II(4-11) (reference value: 152.4 +/- 5.1 dyne/mg); format: functional, Aorta; details: 0.5 h
Aortic ring [3] = assay: Induction of contraction in Albino Wistar rat aortic ring assessed as Emax of hU-II at 0.1 uM incubated for 30 mins in presence of hU-II (reference value: 214.5 +/- 10.51 dyne/mg); format: functional, Aorta; details: 0.5 h
Aortic ring [4] = assay: Induction of contraction in Albino Wistar rat aortic ring assessed as Emax of [Ala1]U-II at 1 uM incubated for 30 mins in presence of [Ala1]U-II (reference value: 391.6 +/- 38.83 dyne/mg); format: functional, Aorta; details: 0.5 h
Aortic ring [5] = assay: Induction of contraction in Albino Wistar rat aortic ring assessed as Emax of U-II(4-11) at 10 uM incubated for 30 mins in presence of U-II(4-11) (reference value: 242.6 +/- 20.63 dyne/mg); format: functional, Aorta; details: 0.5 h
Aortic ring [6] = assay: Induction of contraction in Albino Wistar rat aortic ring assessed as Emax of U-II(4-11) at 0.1 uM incubated for 30 mins in presence of U-II(4-11) (reference value: 159.8 +/- 7.3 dyne/mg); format: functional, Aorta; details: 0.5 h
Aortic ring [7] = assay: Induction of contraction in Albino Wistar rat aortic ring assessed as Emax of [Ala1]U-II at 0.1 uM incubated for 30 mins in presence of [Ala1]U-II (reference value: 153.3 +/- 10.75 dyne/mg); format: functional, Aorta; details: 0.5 h
Aortic ring [8] = assay: Induction of contraction in Albino Wistar rat aortic ring assessed as Emax of hU-II at 10 uM incubated for 30 mins in presence of hU-II (reference value: 279.9 +/- 11.02 dyne/mg); format: functional, Aorta; details: 0.5 h
Aortic ring [9] = assay: Induction of contraction in Albino Wistar rat aortic ring assessed as Emax of [Ala1]U-II at 10 uM incubated for 30 mins in presence of [Ala1]U-II (reference value: 323 +/- 30.45 dyne/mg); format: functional, Aorta; details: 0.5 h
Aortic ring [10] = assay: Induction of contraction in Albino Wistar rat aortic ring at 1 to 30 nM; format: functional, tissue-based; details: Aorta, dose 1-30 nM

CC(C)[C@H](NC(=O)[C@@H]1CSSC(C)(C)[C@H](NC(=O)[C@H](C)NC(=O)[C@@H]2CCCN2C(=O)[C@@H](NC(=O)[C@H](C)N)[C@@H](C)O)C(=O)N[C@@H](Cc2ccccc2)C(=O)N[C@H](Cc2c[nH]c3ccccc23)C(=O)N[C@@H](CCCN)C(=O)N[C@@H](Cc2ccc(O)cc2)C(=O)N1)C(=O)O
Emax (Aortic ring [1]): 231.1 dyn/mg
Emax (Aortic ring [2]): 502.2 dyn/mg
Emax (Aortic ring [3]): 386.5 dyn/mg
Emax (Aortic ring [4]): 593 dyn/mg
Emax (Aortic ring [5]): 261.8 dyn/mg
Emax (Aortic ring [6]): 354.4 dyn/mg
Emax (Aortic ring [7]): 406.4 dyn/mg
Emax (Aortic ring [8]): 126.2 dyn/mg
Emax (Aortic ring [9]): 457.6 dyn/mg
Activity (Aortic ring [10]): inactive
